Assay [1] can be described thus: HepG2 cell cytotoxicity, dose response, cytotoxicity control for non-replicating M. tuberculosis project (AID 489018). It counts as functional. Particulars: Mycobacterium tuberculosis.
A short description of assay [2]: Shn3 3'UTR reporter inhibitors, dose response, cell-based, Clone20 osteoblasts, firefly luciferase, cherry-picked (AID 624132).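 Note: firefly luciferase luminescence from reporter carrying the Shn3 3'UTR in osteoblasts.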 It counts as functional.
The nature of assay [3]: insulin promoter down-regulators in MIN6 cells, imaging, high-content screening, mouse beta cells (AID 1628). It counts as functional.
Assay [4] in a line: microbe, parasite or virus in culture. It counts as functional. Particulars: Mycobacterium tuberculosis.
Assay [5] can be described thus: control 3'UTR Renilla luciferase suppression, dose response, counter-screen for Shn3 inhibitor project, cell-based, Clone20-Shn3RL, cherry-picked (AID 624133). The class given is functional. (In general: A counterscreen serves to expose hits that act by an unwanted route or on another target.)
The target in the next assay is Beta-galactosidase (Escherichia coli, UniProt Q8VNN2). Put plainly: PubChem AID 485352. It counts as functional.
The nature of assay [6]: THP-1 cell cytotoxicity, dose response, cytotoxicity control for non-replicating M. tuberculosis project (AID 489025). The class given is functional.
A short description of assay [7]: cytotoxicity in MIN6 insulinoma cells, dose response, cytotoxicity control, cell-based, mouse insulinoma (AID 2122).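 Note: confirmatory high-throughput counterscreen run to flag cytotoxic compounds; mouse MIN-6 beta cells carrying an insulin promoter eGFP reporter.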 It counts as functional.
For assay [8], the target named is T1, Sphingosine 1-phosphate receptor 4 (Homo sapiens, UniProt O95977).
T1 sequence (O95977 whole entry): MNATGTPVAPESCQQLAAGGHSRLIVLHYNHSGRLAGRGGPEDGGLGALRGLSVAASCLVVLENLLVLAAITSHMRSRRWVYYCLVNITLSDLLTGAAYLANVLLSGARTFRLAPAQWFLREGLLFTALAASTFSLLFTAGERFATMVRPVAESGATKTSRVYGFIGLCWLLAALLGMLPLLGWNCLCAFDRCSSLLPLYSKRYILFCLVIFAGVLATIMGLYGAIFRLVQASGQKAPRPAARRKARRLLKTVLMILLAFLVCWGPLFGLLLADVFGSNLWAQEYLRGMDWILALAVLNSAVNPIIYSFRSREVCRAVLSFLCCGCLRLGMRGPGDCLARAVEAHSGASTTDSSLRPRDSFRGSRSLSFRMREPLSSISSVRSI
Put plainly: Fluorescence dose response cell-based high throughput screening assay for antagonists of the Sphingosine 1-Phosphate Receptor 4 (S1P4). [Related pubchem assays: 1524 (Confirmation in triplicates.), 1510 (Primary screen.)]. The class given is functional.

A further assay has as its system Vero. Kind of assay: cells. The class given is functional. Particulars: Chlorocebus sabaeus.
Assay [9] is described as follows: Vero E6 cell cytotoxicity, dose response, cytotoxicity control for non-replicating M. tuberculosis project, secondary assay (AID 492998). The class given is functional, VeroE6. Particulars: Vero C1008.
Assay [10] is described as follows: HepG2 cell cytotoxicity, dose response, cytotoxicity control for Shn3 inhibitor project, CellTiter-Glo, cherry-picked (AID 624134). The class given is functional, cell-based.
Assay [11] has as its target Sphingosine 1-phosphate receptor 1 (Homo sapiens, UniProt P21453). The class given is functional.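 Note: Tango beta-arrestin reporter U2OS cells stimulated with S1P near its EC80; inhibitor potency meaning antagonism of receptor activation by the natural agonist.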
Assay [12] is described as follows: ZM109 Env clade C HIV-1 fusion inhibitors, dose response, HeLa effector, CEM target cells, luciferase, cherry-pick (AID 652058). It counts as functional, cell-based.
A short description of assay [13]: off-target signal loss in HeLa-CEM21 co-culture – HeLa F-luc CTL cells, cherry-picked, counter-screen for HIV-1 Env fusion inhibitor project, dose response (AID 652040).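 Note: potency for signal decrease marking cytotoxic or nonspecific inhibition.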 It counts as functional, cell-based.
A short description of assay [14]: CEM21 lymphoblast cell cytotoxicity, dose response, cytotoxicity control for viral fusion inhibitor project, CellTiter-Glo luminescence, cherry-picked (AID 652042).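 Note: potency for signal decrease meaning cytotoxicity.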 The class given is functional, cell-based. For orientation: ATP-based viability assays read luminescence as a measure of living cells.
Assay [15] is described as follows: inhibitors of clade B AD8 Env fusion, dose response, cell-based, cherry-pick (AID 652062).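 Note: luciferase signal from cell-cell fusion driven by HIV-1 clade B AD8 Env; potency is for inhibitors of fusion seen as a drop in luminescence.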 It counts as functional.
A short description of assay [16]: inhibitors of HIV Env-driven cell fusion, dose response, cherry-pick (AID 652057). The class given is functional, cell-based.
Assay [17] deals with T2, Mannose-6-phosphate isomerase (Homo sapiens, UniProt P34949).
T2 sequence (P34949 whole entry): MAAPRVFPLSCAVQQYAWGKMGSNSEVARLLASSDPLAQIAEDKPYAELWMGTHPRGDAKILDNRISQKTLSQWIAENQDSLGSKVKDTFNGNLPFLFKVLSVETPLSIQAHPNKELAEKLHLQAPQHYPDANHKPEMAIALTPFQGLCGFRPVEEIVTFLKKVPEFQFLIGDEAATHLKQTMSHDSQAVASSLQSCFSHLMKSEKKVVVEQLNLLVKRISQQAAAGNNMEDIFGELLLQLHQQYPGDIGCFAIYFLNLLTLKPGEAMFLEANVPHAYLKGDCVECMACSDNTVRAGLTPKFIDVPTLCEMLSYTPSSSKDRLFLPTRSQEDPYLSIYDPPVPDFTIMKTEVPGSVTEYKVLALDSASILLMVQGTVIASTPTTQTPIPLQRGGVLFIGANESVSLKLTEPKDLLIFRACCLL
Kind of assay: human PMI inhibitors, high substrate, primary screen, biochemical, fluorescence intensity, high mannose 6-phosphate (AID 1220).

Assay [18] in a line: Luminescent dose response cell-based high throughput screening assay for inhibitors of the Janus kinase 2 mutant JAK2V617F. [Related pubchem assays: 1446 (Primary screen.), 1521 (Confirmation assay.), 1486 (Counter screen.)]. It counts as functional.
The nature of assay [19]: growth suppression of PTEN-null colon cells, dose response, cell-based, HCT116 PTEN knockout (AID 1047).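 Note: HCT116 colon tumor cells with PTEN knocked out; cells exposed to compound for 60 hours before readout; potency for loss of cell viability measured by luminescence.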 It counts as functional.
The target of assay [20] is Peroxisome proliferator-activated receptor gamma/Nuclear receptor coactivator 1 (Homo sapiens, UniProt P37231). Kind of assay: TR-FRET dose response biochemical High Throughput Screening assay for agonists of the steroid receptor coactivator 1 (SRC-1) recruitment by the peroxisome proliferator-activated receptor gamma (PPAR gamma): non-selective agonists. [Related pubchem assays (depositor defined):AID1300, AID1808, AID504735, AID631]. It counts as protein assay. In general terms: In TR-FRET formats the signal depends on donor and acceptor labels being close together.

Assay [21] addresses Peroxisome proliferator-activated receptor gamma/Nuclear receptor coactivator 3 (Homo sapiens, UniProt P37231). Put plainly: TR-FRET dose response biochemical High Throughput Screening assay for agonists of the steroid receptor coactivator 3 (SRC-3) recruitment by the peroxisome proliferator-activated receptor gamma (PPAR gamma): non-selective agonists. [Related pubchem assays: 1301 (Confirmation screen.), 1048 (Primary screen.)]. It counts as functional.

Assay [22] deals with Peroxisome proliferator-activated receptor gamma/Nuclear receptor coactivator 2 (Homo sapiens, UniProt P37231). Kind of assay: TR-FRET dose response biochemical High Throughput Screening assay for agonists of the steroid receptor coactivator 2 (SRC-2) recruitment by the peroxisome proliferator-activated receptor gamma (PPAR gamma): non-selective agonists. [Related pubchem assays: 1297, 1032 ]. It counts as functional.

Assay [23] is described as follows: cytotoxicity toward DRD oncogenic fibroblasts, dose response, cell-based, non-viral oncogenic, luminescence (AID 1934). Particulars: Homo sapiens. The class given is functional.
A short description of assay [24]: inhibitors of firefly luciferase expression or activity, dose response, H4 neuroglioma cells, luminescence (AID 1990). It counts as functional, cell-based.
The test system of assay [25] is BJ. Put plainly: cytotoxicity toward BJ-TERT-LT-ST fibroblasts, dose response, cell-based, RAS-independent, luminescence (AID 1935).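 Note: BJ fibroblasts immortalized with TERT plus LT and ST oncogenes.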 The class given is functional. Particulars: Homo sapiens.
Assay [26] can be described thus: Luminescence Cell-Based Dose Response HTS to Identify Inhibitors of 5'UTR Stem-Loop Driven Prion Protein mRNA Translation in H4 Neuroglioblastoma Cells. [Related pubchem assays: 1827 (Project Summary), 1813 (Primary HTS)]. The class given is functional.
Assay [27] has as its system BJ. Put plainly: cells. The class given is functional, cell-based. Particulars: Homo sapiens.
For a further assay, the target named is Paired box protein Pax-8 (Homo sapiens, UniProt Q06710). Kind of assay: inhibitors of PAX8-driven TPO luciferase reporter, dose response, RMG-I cells, cherry-pick (AID 687027).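 Note: luciferase reporter driven by Pax8 target thyroperoxidase promoter measured by SteadyGlo luminescence.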 The class given is functional, cell-based.
In assay [28] the test system is BJ. Kind of assay: cytotoxicity toward BJ-TERT fibroblasts, dose response, cell-based, RAS-independent, luminescence (AID 1933). Particulars: Homo sapiens. The class given is functional.

Here are results for 4 compounds from ChEMBL document CHEMBL1201862, “PubChem BioAssay data set” (2004).

Structures are written as SMILES. Calls of active or inactive are those of the source.

Chain of Peroxisome proliferator-activated receptor gamma/Nuclear receptor coactivator 1 (P37231 whole entry): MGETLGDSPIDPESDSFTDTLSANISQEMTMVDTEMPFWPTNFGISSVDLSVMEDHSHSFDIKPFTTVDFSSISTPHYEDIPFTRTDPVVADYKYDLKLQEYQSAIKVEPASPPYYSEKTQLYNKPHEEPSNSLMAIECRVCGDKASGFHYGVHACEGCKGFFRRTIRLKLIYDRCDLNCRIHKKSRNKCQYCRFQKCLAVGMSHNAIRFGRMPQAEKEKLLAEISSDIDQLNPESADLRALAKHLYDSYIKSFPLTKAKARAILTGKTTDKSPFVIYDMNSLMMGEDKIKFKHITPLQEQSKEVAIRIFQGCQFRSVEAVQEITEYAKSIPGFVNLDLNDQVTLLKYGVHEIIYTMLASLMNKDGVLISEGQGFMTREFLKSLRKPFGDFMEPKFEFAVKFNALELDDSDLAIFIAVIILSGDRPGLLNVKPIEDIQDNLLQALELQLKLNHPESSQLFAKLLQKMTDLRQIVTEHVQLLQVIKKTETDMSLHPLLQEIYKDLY
Chain of Peroxisome proliferator-activated receptor gamma/Nuclear receptor coactivator 1 (Q15788 whole entry, further chain): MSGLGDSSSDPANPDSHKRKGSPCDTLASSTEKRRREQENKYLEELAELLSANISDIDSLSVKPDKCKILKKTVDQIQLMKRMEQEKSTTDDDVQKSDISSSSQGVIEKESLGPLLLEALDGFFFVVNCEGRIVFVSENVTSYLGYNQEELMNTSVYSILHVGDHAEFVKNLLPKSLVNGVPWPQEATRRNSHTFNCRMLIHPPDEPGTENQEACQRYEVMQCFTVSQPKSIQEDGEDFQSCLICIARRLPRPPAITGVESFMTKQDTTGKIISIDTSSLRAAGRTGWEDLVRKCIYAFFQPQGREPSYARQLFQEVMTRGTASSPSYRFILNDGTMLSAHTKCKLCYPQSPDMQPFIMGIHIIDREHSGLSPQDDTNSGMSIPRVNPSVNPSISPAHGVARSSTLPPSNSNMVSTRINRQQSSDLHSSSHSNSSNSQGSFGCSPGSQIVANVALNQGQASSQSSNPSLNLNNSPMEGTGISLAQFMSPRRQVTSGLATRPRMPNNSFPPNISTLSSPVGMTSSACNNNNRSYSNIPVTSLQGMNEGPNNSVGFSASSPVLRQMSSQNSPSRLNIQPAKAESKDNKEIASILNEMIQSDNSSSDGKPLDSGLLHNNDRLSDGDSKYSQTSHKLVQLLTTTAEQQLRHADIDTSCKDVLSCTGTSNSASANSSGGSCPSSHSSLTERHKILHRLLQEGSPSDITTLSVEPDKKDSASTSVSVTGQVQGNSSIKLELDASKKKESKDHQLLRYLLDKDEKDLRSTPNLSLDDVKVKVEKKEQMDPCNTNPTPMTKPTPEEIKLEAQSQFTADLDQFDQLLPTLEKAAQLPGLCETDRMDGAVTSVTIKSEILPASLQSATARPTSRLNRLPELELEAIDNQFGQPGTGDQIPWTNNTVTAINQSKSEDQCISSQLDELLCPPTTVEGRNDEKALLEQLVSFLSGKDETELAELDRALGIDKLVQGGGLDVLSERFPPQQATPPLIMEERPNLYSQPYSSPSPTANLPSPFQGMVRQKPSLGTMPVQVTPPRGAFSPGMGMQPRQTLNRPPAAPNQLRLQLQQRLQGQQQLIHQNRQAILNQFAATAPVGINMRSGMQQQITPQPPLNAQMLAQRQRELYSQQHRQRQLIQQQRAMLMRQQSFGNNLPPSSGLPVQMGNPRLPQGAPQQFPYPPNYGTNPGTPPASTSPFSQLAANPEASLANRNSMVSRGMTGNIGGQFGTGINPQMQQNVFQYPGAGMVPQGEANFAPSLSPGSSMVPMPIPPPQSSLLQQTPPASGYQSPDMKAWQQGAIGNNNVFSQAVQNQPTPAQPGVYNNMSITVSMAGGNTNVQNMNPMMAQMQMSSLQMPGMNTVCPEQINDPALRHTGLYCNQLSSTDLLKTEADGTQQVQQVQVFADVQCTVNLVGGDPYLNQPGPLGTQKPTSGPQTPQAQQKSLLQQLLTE
Chain of Peroxisome proliferator-activated receptor gamma/Nuclear receptor coactivator 2 (P37231 whole entry): as the sequence (P37231 whole entry) above
Chain of Peroxisome proliferator-activated receptor gamma/Nuclear receptor coactivator 2 (Q15596 whole entry, further chain): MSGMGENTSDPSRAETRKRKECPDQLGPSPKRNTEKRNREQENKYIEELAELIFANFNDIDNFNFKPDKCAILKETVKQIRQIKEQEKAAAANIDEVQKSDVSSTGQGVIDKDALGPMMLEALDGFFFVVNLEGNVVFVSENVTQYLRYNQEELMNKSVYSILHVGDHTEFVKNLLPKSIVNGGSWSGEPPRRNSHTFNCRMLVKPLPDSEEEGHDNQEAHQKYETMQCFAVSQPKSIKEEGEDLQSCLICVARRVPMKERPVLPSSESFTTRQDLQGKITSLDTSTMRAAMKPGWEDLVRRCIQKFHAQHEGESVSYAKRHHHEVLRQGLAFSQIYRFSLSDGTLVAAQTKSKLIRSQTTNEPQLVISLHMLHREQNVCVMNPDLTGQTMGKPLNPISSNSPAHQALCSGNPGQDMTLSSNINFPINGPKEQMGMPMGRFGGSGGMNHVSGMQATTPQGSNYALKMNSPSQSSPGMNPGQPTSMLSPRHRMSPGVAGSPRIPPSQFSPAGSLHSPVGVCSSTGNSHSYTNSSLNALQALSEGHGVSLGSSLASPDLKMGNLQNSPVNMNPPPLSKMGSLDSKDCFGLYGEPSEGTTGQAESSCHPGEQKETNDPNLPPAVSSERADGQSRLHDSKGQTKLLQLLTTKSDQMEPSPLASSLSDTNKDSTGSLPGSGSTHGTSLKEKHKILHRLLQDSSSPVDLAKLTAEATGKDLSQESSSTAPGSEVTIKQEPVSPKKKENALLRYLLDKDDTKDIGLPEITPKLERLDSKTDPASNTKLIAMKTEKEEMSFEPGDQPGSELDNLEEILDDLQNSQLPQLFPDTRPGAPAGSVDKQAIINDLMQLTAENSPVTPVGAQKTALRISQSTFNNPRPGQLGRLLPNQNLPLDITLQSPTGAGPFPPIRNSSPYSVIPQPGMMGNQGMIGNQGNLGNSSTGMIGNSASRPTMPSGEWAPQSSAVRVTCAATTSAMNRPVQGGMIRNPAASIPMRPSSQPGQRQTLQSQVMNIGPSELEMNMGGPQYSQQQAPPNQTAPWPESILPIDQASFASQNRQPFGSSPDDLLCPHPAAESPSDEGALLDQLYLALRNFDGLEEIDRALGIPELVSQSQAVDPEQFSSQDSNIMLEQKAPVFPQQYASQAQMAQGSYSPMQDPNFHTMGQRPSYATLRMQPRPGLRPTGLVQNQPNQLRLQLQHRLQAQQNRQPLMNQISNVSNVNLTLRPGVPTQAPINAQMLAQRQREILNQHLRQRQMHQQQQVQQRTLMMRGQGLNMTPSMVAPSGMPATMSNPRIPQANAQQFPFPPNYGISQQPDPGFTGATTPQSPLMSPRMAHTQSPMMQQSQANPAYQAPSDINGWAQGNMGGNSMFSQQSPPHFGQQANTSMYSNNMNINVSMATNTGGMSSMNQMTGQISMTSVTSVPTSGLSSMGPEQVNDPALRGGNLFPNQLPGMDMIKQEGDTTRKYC
Chain of Beta-galactosidase (Q8VNN2 whole entry): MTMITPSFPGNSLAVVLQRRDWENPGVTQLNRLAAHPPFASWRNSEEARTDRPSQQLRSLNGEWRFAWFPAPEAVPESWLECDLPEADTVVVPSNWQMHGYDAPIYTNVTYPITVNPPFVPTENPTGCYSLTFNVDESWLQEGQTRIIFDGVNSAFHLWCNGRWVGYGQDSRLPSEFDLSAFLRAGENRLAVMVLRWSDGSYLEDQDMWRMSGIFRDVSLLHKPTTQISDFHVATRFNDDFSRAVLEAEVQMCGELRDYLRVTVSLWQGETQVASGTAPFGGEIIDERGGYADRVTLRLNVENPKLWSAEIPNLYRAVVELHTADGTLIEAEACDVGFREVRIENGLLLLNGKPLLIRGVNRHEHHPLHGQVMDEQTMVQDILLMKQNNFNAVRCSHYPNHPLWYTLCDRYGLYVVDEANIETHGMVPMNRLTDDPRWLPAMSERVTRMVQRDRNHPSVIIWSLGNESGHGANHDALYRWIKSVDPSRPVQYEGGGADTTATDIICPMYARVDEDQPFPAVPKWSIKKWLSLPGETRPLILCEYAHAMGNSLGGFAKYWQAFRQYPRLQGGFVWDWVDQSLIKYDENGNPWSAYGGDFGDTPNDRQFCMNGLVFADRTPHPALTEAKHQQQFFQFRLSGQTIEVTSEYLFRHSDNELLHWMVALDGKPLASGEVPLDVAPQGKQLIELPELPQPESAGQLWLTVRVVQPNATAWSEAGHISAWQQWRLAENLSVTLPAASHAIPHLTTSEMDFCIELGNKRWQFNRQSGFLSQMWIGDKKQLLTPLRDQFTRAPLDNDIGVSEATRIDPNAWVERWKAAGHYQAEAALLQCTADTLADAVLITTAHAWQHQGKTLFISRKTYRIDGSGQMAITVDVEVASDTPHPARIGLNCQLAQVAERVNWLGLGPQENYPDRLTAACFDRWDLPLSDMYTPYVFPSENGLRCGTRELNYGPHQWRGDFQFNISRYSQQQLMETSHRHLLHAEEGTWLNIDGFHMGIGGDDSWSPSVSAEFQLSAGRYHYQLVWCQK

With `Oc1c(C(c2ccccc2Cl)N2CCCC2)ccc2cccnc12` (stereo unspecified), the CC50 in assay [1] is 17.6 µM (active); in assay [4], 30.5 µM (active); in assay [6] it was 9.54 µM (active); in the assay on Vero, 17.1 µM (active); in assay [9], 9.56 µM (active). Besides, the AC50 (in general, the concentration giving half of the maximal activity seen) in [2] was 5.77 µM (active); in [5], 6.38 µM (active); in assay [10], 46.9 µM (active). Besides, the IC50 (in general, the concentration that gives 50% inhibition) in assay [3] is 5.2 µM (active); in assay [7] it was 4.59 µM (active); in assay [8] it was 2.25 µM (active); in [11], 5.93 µM (active). For the same compound, the EC50 (in general, the midpoint of the concentration-response curve) at Beta-galactosidase was > 40 µM (inactive).

As for `CCc1ccc(S(=O)(=O)/N=C2\C=C(Nc3ccc(C(=O)O)cc3)C(=O)c3ccccc32)cc1`, the AC50 is 6.74 µM (active) in [12]; 1.29 µM (active) in [13]; 6.53 µM (active) in assay [14]; 3.52 µM (active) in [15]; 8.79 µM (active) in [16].

Regarding `[O-][N+]1=c2ccc(Nc3ccccc3)cc2=NC12CCCCC2`, the IC50 in assay [17] was 48.2 µM (active); in assay [18], 0.637 µM (active). Further, the EC50 in assay [19] was 1.9 µM (active); in [20] it was 14.9 µM (inactive); in [21] it was > 79.4 µM (not active); in [22], 14.4 µM (not active).

`COc1cccc(/C=N/Nc2ccc([N+](=O)[O-])cn2)c1O`: the EC50 in assay [23] is 3.96 µM (active); in [24] it was 2.97 µM (active); in the assay with BJ [25] it was 4.96 µM (inconclusive); in assay [26], 0.34 µM (active); with BJ [27], 9.14 µM (inconclusive); in the assay on BJ [28] it was 3.31 µM (inconclusive). Further, the AC50 at Paired box protein Pax-8 was 6.41 µM (active).
